Reference: US12576099B2, “Ribose-modified cap analog and use thereof” (Beijing Youcare Kechuang Pharmaceutical Technology Co., Ltd., priority 2024, dated 2026)

Experiments:
T7 RNA polymerase = T7 RNA polymerase (Escherichia phage T7, UniProt P00573); experiment: Capping rate of mRNA transcription initiated by cap analogs (LC-MS); format: biochemical; conditions: for Capping rate: LC-MS of mRNA 5′ fragment
Protocol: During the experiment, the volume of materials required for the system was first calculated, and then sample addition was conducted. The system was first added with sterile enzyme-free water, followed by the sequential addition of 10× buffer, NTPs, and cap analogs, mixed well, and gently centrifuged. Nuclease inhibitors, inorganic pyrophosphatase, T7RNA polymerase, and linearized DNA templates were then added thereto. The system was mixed well, gently centrifuged, and incubated at 37° C. After 2 hours of incubation, the system was added with 1 U of DNase I and incubated at 37° C. for another 30 minutes. The mRNA precipitate was then washed with 75% ethanol, and after the ethanol was briefly evaporated to dryness, the mRNA was redissolved in sterile enzyme-free water. • (3) The transcription product was purified, and the in vitro transcription yield of mRNA was recorded. • (4) The obtained mRNA was subjected to an annealing reaction with a probe.
The annealing reaction was performed in a PCR instrument: 95° C. for 5 minutes; 65° C. for 2 minutes; 55° C. for 2 minutes; 40° C. for 2 minutes; 22° C. for 2 minutes. • (5) Magnetic bead pretreatment and probe binding: 100 μL of magnetic beads was placed on a magnetic frame for pretreatment. The magnetic bead solution was added with 120 μL of sample and incubated at room temperature for 30 minutes with slow mixing. • (6) mRNA splicing and obtaining the mRNA 5′ single-strand sequence bound to the probe
The mixture was added with 20 μL of RNase H (5 U/μL) and incubated at 37° C. for 3 hours with mixing every half hour. After incubation, the magnetic beads were washed and then added with 100 μL of 75% methanol heated to 80° C. The mixture was heated to 80° C. on a heating plate, held for 3 minutes, then placed on a magnetic frame to aspirate the supernatant, and dried at room temperature for 45 minutes to a volume of 10 μL using a centrifugal evaporator. The sample was then resuspended in 50 μL of 100 μM EDTA/1% MeOH and ready for LC-MS analysis to determine the capping of RNA in the transcription reaction. Since there is a significant difference in molecular weight between capped and uncapped bases, the capping rate of mRNA transcription initiated by different cap analogs can be determined based on the difference in molecular mass.

HEK293T cells = experiment: Translation efficiency of different capped luciferase mRNAs; format: cell-based; conditions: for Relative fluorescence intensity: HEK293T, 0.5 μg mRNA per well, 24 hours, proportional to translation efficiency; for Multiple of m6A (relative fluorescence intensity): relative to m6A; for Relative fluorescence intensity, times that of HN3002: relative to HN3002; for Relative fluorescence intensity, times that of N-7113: relative to N-7113; for Relative fluorescence intensity (translation efficiency), times that of YK-CAP-101: relative to YK-CAP-101; for Relative fluorescence intensity, times that of YK-CAP-102: relative to YK-CAP-102; for Relative fluorescence intensity, times that of YK-CAP-103: relative to YK-CAP-103; for Relative fluorescence intensity, times that of YK-CAP-104: relative to YK-CAP-104; for Relative fluorescence intensity, times that of YK-CAP-105: relative to YK-CAP-105; for Relative fluorescence intensity, times that of compound 14: relative to compound 14
Protocol: • (1) HEK293T cells were cultured in DMEM medium containing 10% FBS and penicillin/streptomycin at 37° C. with 5% CO2. • (2)Cells in the culture dish were digested and counted, then spread in a 96-well plate at 10,000 cells per well, and cultured overnight until the cells adhered to the wall. • (3) When the cell density reached approximately 80%, transfection was performed by adding 0.5 μg of mRNA sample and Lipofectamine MessengerMAX Transfection Reagent (Invitrogen) per well according to the manufacturer's instructions. • (4) After the transfected cells were cultured at 37° C. with 5% CO2 for 24 hours, the growth medium was removed from the cells to be tested, and the cells were rinsed with PBS. After centrifugation to remove PBS, 50 μL of 1× lysis buffer was added. The cells and all liquid were transferred to a microcentrifuge tube and centrifuged. • (5) 20 μL of sample was taken and added to 100 μL of Dual-Lumi™ II Luciferase Assay Reagent pre-equilibrated to room temperature, and mixed appropriately. • (6) The mixture was incubated at room temperature (approximately 25° C.) for 5 minutes to stabilize the luminescence signal. Chemiluminescence was detected using a multifunctional microplate reader with a function for detecting chemiluminescence, and the data were recorded.
The relative fluorescence intensity is proportional to the translation efficiency of mRNA.

T7 RNA polymerase, sequence (P00573 whole entry, the tested form may be a part): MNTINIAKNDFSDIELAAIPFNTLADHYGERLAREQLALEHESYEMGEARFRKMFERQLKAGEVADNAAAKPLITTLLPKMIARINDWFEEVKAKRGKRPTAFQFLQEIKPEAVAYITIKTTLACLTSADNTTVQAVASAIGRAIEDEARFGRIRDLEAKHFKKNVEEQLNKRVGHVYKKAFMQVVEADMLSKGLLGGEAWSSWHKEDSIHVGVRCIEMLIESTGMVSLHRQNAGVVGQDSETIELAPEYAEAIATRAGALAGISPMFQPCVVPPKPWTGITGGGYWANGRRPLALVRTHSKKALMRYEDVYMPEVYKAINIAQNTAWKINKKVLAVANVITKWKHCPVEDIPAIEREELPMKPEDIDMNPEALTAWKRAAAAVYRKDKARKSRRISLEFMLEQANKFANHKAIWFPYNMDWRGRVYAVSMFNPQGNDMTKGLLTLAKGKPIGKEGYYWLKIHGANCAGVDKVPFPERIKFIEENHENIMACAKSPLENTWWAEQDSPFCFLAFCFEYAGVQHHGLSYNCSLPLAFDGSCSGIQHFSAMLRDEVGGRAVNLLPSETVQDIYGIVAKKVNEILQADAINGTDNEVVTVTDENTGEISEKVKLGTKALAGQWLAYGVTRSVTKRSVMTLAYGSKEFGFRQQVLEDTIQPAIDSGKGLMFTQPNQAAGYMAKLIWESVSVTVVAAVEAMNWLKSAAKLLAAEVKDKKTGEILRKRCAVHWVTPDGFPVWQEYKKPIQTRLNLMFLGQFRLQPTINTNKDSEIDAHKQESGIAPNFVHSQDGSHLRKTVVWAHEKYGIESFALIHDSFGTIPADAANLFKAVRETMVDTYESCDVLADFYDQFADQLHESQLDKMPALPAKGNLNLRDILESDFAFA

SMILES | Capping rate (T7 RNA polymerase) [%] | Increase relative to 5227 (capping rate) (T7 RNA polymerase) [%] | Relative fluorescence intensity (HEK293T cells) | Multiple of m6A (relative fluorescence intensity) (HEK293T cells) | further results
COC[C@@H]1[C@H](OP(=O)(O)OC[C@H]2O[C@@H](n3cnc4c(=O)[nH]c(N)nc43)[C@H](O)[C@@H]2O)[C@@H](COP(=O)(O)OP(=O)(O)OP(=O)(O)OC[C@H]2O[C@@H]([n+]3cn(C)c4c(=O)[nH]c(N)nc43)[C@H](O)[C@@H]2O)O[C@H]1n1cnc2c(N)ncnc21 [YK-CAP-113] | 95.2 | 32.4 | 1.63 | 4.3 | 
CO[C@@H]1[C@H](OP(=O)(O)OC[C@H]2O[C@@H](n3cnc4c(=O)[nH]c(N)nc43)[C@H](O)[C@@H]2O)[C@@H](COP(=O)(O)OP(=O)(O)OP(=O)(O)OC[C@H]2O[C@@H]([n+]3cn(C)c4c(=O)[nH]c(N)nc43)[C@H](O)[C@]2(C)NC(C)=O)O[C@H]1n1cnc2c(N)ncnc21 [YK-CAP-106] | 95.3 | 32.5 | 1.53 | 4.0 | 
CO[C@@H]1[C@H](OP(=O)(O)OC[C@H]2O[C@@H](n3cnc4c(=O)[nH]c(N)nc43)[C@H](O)[C@@H]2O)[C@@H](COP(=O)(O)OP(=O)(O)OP(=O)(O)OC[C@H]2O[C@@H]([n+]3cn(C)c4c(=O)[nH]c(N)nc43)[C@H](O)[C@@H]2C(C)F)O[C@H]1n1cnc2c(N)ncnc21 (stereo partly shown) [YK-CAP-109] | 95.2 | 32.4 | 1.53 | 4.0 | 
CO[C@@H]1[C@H](OP(=O)(O)OC[C@H]2O[C@@H](n3cnc4c(=O)[nH]c(N)nc43)[C@H](O)[C@@H]2O)[C@@H](COP(=O)(O)OP(=O)(O)OP(=O)(O)OC[C@H]2O[C@@H]([n+]3cn(C)c4c(=O)[nH]c(N)nc43)[C@H](O)[C@@H]2C(C)NC(C)=O)O[C@H]1n1cnc2c(N)ncnc21 (stereo partly shown) [YK-CAP-108] | 95.8 | 33.2 | 1.43 | 3.8 | 
CO[C@@H]1[C@H](OP(=O)(O)OC[C@H]2O[C@@H](n3cnc4c(=O)[nH]c(N)nc43)[C@H](O)[C@@H]2O)[C@@H](COP(=O)(O)OP(=O)(O)OP(=O)(O)OC[C@H]2OC([n+]3cn(C)c4c(=O)[nH]c(N)nc43)[C@H](O)[C@@H](O)[C@@H]2O)O[C@H]1n1cnc2c(N)ncnc21 (stereo partly shown) [YK-CAP-101] | 42.8 | −40.5 | 0.22 | 0.6 | 
CO[C@@H]1[C@H](OP(=O)(O)OC[C@H]2O[C@@H](n3cnc4c(=O)[nH]c(N)nc43)[C@H](O)[C@@H]2O)[C@@H](COP(=O)(O)OP(=O)(O)OP(=O)(O)OC[C@H]2O[C@@H]([n+]3cn(C)c4c(=O)[nH]c(N)nc43)[C@H](O)[C@@H]2C(F)F)O[C@H]1n1cnc2c(N)ncnc21 [YK-CAP-110] | 97.4 | 35.5 | 1.95 | 5.1 | Relative fluorescence intensity, times that of HN3002 (HEK293T cells): 1.7 times; Relative fluorescence intensity, times that of N-7113 (HEK293T cells): 1.9 times; Relative fluorescence intensity (translation efficiency), times that of YK-CAP-101 (HEK293T cells): 8.9 times; Relative fluorescence intensity, times that of YK-CAP-102 (HEK293T cells): 5.7 times; Relative fluorescence intensity, times that of YK-CAP-103 (HEK293T cells): 2.5 times; Relative fluorescence intensity, times that of YK-CAP-104 (HEK293T cells): 2.4 times; Relative fluorescence intensity, times that of YK-CAP-105 (HEK293T cells): 2.7 times; Relative fluorescence intensity, times that of compound 14 (HEK293T cells): 1.7 times
CO[C@@H]1[C@H](OP(=O)(O)OC[C@H]2O[C@@H](n3cnc4c(=O)[nH]c(N)nc43)[C@H](O)[C@@H]2O)[C@@H](COP(=O)(O)OP(=O)(O)OP(=O)(O)OC[C@@]2(OC)O[C@@H]([n+]3cn(C)c4c(=O)[nH]c(N)nc43)[C@H](O)[C@@H]2O)O[C@H]1n1cnc2c(N)ncnc21 [compound 5227, reference compound] | 71.9 | 0 | 0.82 | 2.2 | 
CO[C@@H]1[C@H](OP(=O)(O)OC[C@H]2O[C@@H](n3cnc4c(=O)[nH]c(N)nc43)[C@H](O)[C@@H]2O)[C@@H](COP(=O)(O)OP(=O)(O)OP(=O)(O)OC[C@@]2(CF)O[C@@H]([n+]3cn(C)c4c(=O)[nH]c(N)nc43)[C@H](O)[C@@H]2O)O[C@H]1n1cnc2c(N)ncnc21 [YK-CAP-118] | 97.2 | 35.2 | 1.65 | 4.3 | 
CO[C@@H]1[C@H](OP(=O)(O)OC[C@H]2O[C@@H](n3cnc4c(=O)[nH]c(N)nc43)[C@H](O)[C@@H]2O)[C@@H](COP(=O)(O)OP(=O)(O)OP(=O)(O)OC[C@@]2(C(F)F)O[C@@H]([n+]3cn(C)c4c(=O)[nH]c(N)nc43)[C@H](O)[C@@H]2O)O[C@H]1n1cnc2c(N)ncnc21 [YK-CAP-119] | 96.3 | 33.9 | 1.45 | 3.8 | 
CCN(CC)C(=O)[C@H]1[C@@H](O)[C@H]([n+]2cn(C)c3c(=O)[nH]c(N)nc32)O[C@@H]1COP(=O)(O)OP(=O)(O)OP(=O)(O)OC[C@H]1O[C@@H](n2cnc3c(N)ncnc32)[C@H](OC)[C@@H]1OP(=O)(O)OC[C@H]1O[C@@H](n2cnc3c(=O)[nH]c(N)nc32)[C@H](O)[C@@H]1O [YK-CAP-111] | 98.1 | 36.4 | 2.12 | 5.6 | Capping rate, times that of YK-CAP-101 (T7 RNA polymerase; relative to YK-CAP-101): 2.3 times; Capping rate, times that of YK-CAP-102 (T7 RNA polymerase; relative to YK-CAP-102): 3.2 times; Capping rate, times that of YK-CAP-103 (T7 RNA polymerase; relative to YK-CAP-103): 1.4 times; Capping rate, times that of YK-CAP-104 (T7 RNA polymerase; relative to YK-CAP-104): 1.3 times; Capping rate, times that of YK-CAP-105 (T7 RNA polymerase; relative to YK-CAP-105): 1.4 times; Capping rate higher than that of compound 14 (T7 RNA polymerase; relative to compound 14): 25.3%; Relative fluorescence intensity, times that of HN3002 (HEK293T cells): 1.9 times; Relative fluorescence intensity, times that of N-7113 (HEK293T cells): 2.1 times; Relative fluorescence intensity (translation efficiency), times that of YK-CAP-101 (HEK293T cells): 9.6 times; Relative fluorescence intensity, times that of YK-CAP-102 (HEK293T cells): 6.2 times; Relative fluorescence intensity, times that of YK-CAP-103 (HEK293T cells): 2.8 times; Relative fluorescence intensity, times that of YK-CAP-104 (HEK293T cells): 2.6 times; Relative fluorescence intensity, times that of YK-CAP-105 (HEK293T cells): 2.9 times; Relative fluorescence intensity, times that of compound 14 (HEK293T cells): 1.9 times
COC(C)[C@H]1[C@@H](O)[C@H]([n+]2cn(C)c3c(=O)[nH]c(N)nc32)O[C@@H]1COP(=O)(O)OP(=O)(O)OP(=O)(O)OC[C@H]1O[C@@H](n2cnc3c(N)ncnc32)[C@H](OC)[C@@H]1OP(=O)(O)OC[C@H]1O[C@@H](n2cnc3c(=O)[nH]c(N)nc32)[C@H](O)[C@@H]1O (stereo partly shown) [YK-CAP-107] | 97.3 | 35.3 | 1.62 | 4.3 | 
COC[C@]1(COP(=O)(O)OP(=O)(O)OP(=O)(O)OC[C@H]2O[C@@H](n3cnc4c(N)ncnc43)[C@H](OC)[C@@H]2OP(=O)(O)OC[C@H]2O[C@@H](n3cnc4c(=O)[nH]c(N)nc43)[C@H](O)[C@@H]2O)O[C@@H]([n+]2cn(C)c3c(=O)[nH]c(N)nc32)[C@H](O)[C@@H]1O [YK-CAP-117] | 95.1 | 32.3 | 1.82 | 4.8 | 
